Publication PMC6141559, “Human-like smelling of a rose scent using an olfactory receptor nanodisc-based bioelectronic nose” (Scientific Reports, 2018)

Target: T1, human olfactory receptor 1A2 (hOR1A2) (Homo sapiens, UniProt Q9Y585)
T1 construct: gene OR1A2; hOR1A2 expressed in E. coli, purified and embedded in MSP1E3D1 nanodiscs
T1 sequence (Q9Y585 1-309): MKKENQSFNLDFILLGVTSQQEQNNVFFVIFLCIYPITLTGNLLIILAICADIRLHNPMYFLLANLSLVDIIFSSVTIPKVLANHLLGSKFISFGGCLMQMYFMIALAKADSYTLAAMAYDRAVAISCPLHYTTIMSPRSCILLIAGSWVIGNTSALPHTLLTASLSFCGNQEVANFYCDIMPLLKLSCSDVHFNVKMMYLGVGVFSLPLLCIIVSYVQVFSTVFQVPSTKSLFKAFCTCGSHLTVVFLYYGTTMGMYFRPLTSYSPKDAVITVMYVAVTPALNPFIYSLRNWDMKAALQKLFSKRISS
Test: nanodisc-functionalized floating-electrode CNT-FET biosensor, equilibrium (association) constant from Hill-Langmuir fit; also HEK-293 luciferase assay (Kd […])
Format: binding
Settings: read-out: nanodisc-functionalized floating-electrode CNT-FET biosensor, equilibrium (assoc) (converted)

Kd: 385 nM
Compound: CC(C)=CCCC(C)CCO (stereo not shown) [citronellol]
